Legend:
[1] = test system: breast cancer cell line MCF-7; assay: Activity against breast cancer cell line MCF-7; format: cell-based; conditions: Homo sapiens, MCF7, read-out: IC50 against MCF-7
[2] = test system: endothelial human sapiens cell line EA.hy926; assay: Activity against endothelial cell line EA.hy926; format: cell-based; conditions: EA.hy 926, read-out: IC50 against EA.hy926

SMILES: CCc1cc(=O)n2c(=O)/c(=C/c3ccc(-c4ccc(C)cc4)cc3)sc2n1 [Compound 15, (Z)-7-ethyl-2-((4′-methyl-[1,1′-biphenyl]-4-yl)methylene)-5H-thiazolo[3,2-a]pyrimidine-3,5(2H)-dione]
- IC50 [1]: > 250 µM
- IC50 [2]: > 250 µM

Source: paper PMC9049071 (RSC Advances, 2020)
